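The compound was tested at five concentrations on cells cultured in 96-well plates, with a 48-hour exposure period. GI50 marks 50% less growth.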 Activity calls are given as the source filed them. Rule as the data show it: active = GI50 up to about 1.1 µM and inactive = higher. Some results are limits rather than exact numbers.

This is an account of results in ChEMBL document CHEMBL1201862, “PubChem BioAssay data set” (2004).

Some test systems named below: MDA-MB-231; SF-268; CCRF-CEM; K562; OVCAR-4; U-251; IGROV-1; BT-549; PC-3; CAKI-1; SNB-19; MOLT-4; HL-60; HCC 2998; COLO 205; MCF7; RXF 393; HCT-15; TK-10; HOP-92.
Experiment in all cases: NCI tumour cell line growth inhibition, 48 h

As for `O=P1(C(O)c2ccccc2)N(Cc2ccccc2)[C@@H]2CCCC[C@H]2N1Cc1ccccc1` (some centres undefined), the GI50 in the assay on MDA-MB-231 was 21.3 µM (inactive); with SF-268, 25.6 µM (inactive); in the assay with CCRF-CEM, 34.8 µM (inactive); with K562, 53.5 µM (inactive); in the assay with OVCAR-4 it was 12.3 µM (inactive); with U-251, 31.3 µM (inactive). In addition, the GI50 with IGROV-1 was 28.6 µM (inactive); with BT-549, 50.2 µM (inactive); in the assay on PC-3, 24.5 µM (inactive); in the assay with CAKI-1 it was 64.4 µM (inactive); in the assay on SNB-19 it was 56.2 µM (inactive); in the assay with MOLT-4, 19.6 µM (inactive). The GI50 with HL-60 is 22.3 µM (inactive); in the assay on HCC 2998 it was 20 µM (inactive); in the assay on COLO 205, 14.8 µM (inactive); in the assay with MCF7, 34.6 µM (inactive); in the assay with RXF 393, 31.4 µM (inactive); in the assay with HCT-15, 34.5 µM. Further, the GI50 in the assay with TK-10 is 30.3 µM (inactive).

As for `CC(=O)NC(C)(C)C1CCC(C)CC1` (centres undefined), the GI50 with MDA-MB-231, with SF-268, in the assay on CCRF-CEM, in the assay with K562, with OVCAR-4 and with U-251 was > 100 µM (inactive) throughout. Further, the GI50 in the assay on IGROV-1, in the assay on BT-549, in the assay on PC-3, with CAKI-1, in the assay on SNB-19 and in the assay with MOLT-4 was > 100 µM (inactive) in each case. The GI50 in the assay with HL-60 is > 100 µM (inactive); with HCC 2998, > 100 µM (inactive); in the assay with COLO 205, > 100 µM (inactive); in the assay on MCF7, > 100 µM (inactive); in the assay with RXF 393 it was > 100 µM (inactive); with HCT-15, above 100 µM. Also, the GI50 with TK-10 was > 100 µM (inactive).

With `Cc1ccc(C(C)C)c(OCC(=O)N/N=C/c2c[nH]c3ccc(Br)cc23)c1`, the GI50 with MDA-MB-231 is 3.17 µM (inactive); in the assay with SF-268, 7.85 µM (inactive); in the assay with CCRF-CEM, 2.11 µM (inactive); with K562 it was 2.38 µM (inactive); in the assay with OVCAR-4 it was 3 µM (inactive); in the assay on U-251 it was 3.11 µM (inactive). Further, the GI50 was 2 µM (inactive) with IGROV-1; 4.99 µM (inactive) in the assay on BT-549; 0.625 µM (active) in the assay with PC-3; 2.55 µM (inactive) in the assay on CAKI-1; 2.87 µM (inactive) in the assay on SNB-19; 3.3 µM (inactive) in the assay on MOLT-4. Further, the GI50 with HL-60 was 2.37 µM (inactive); with COLO 205, 1.69 µM (inactive); in the assay with MCF7 it was 0.45 µM (active); with RXF 393, 1.37 µM (inactive); in the assay on HCT-15, 2.1 µM; in the assay with HOP-92 it was 12.3 µM (inactive). Also, the GI50 with TK-10 is 2.4 µM (inactive).

Consider `OC1(c2ccc(Cl)cc2)C(N2CCCC2)c2ccccc2C2=NCCN21` (centres undefined), for which the GI50 is 24.3 µM (inactive) in the assay on MDA-MB-231; 47.5 µM (inactive) with SF-268; 17.6 µM (inactive) with CCRF-CEM; 13.6 µM (inactive) with K562; 20 µM (inactive) with OVCAR-4; 37.4 µM (inactive) in the assay on U-251. The GI50 in the assay with IGROV-1 is 16.1 µM (inactive); in the assay with BT-549, 27 µM (inactive); in the assay with PC-3, 30 µM (inactive); in the assay on CAKI-1, 26.5 µM (inactive); in the assay with SNB-19, 54.3 µM (inactive); in the assay with MOLT-4, 16 µM (inactive). Also, the GI50 in the assay on HL-60 was 20.7 µM (inactive); in the assay with COLO 205, 11.5 µM (inactive); in the assay on MCF7, 28.5 µM (inactive); with RXF 393 it was 29.1 µM (inactive); with HCT-15 it was 21.4 µM; in the assay with HOP-92, 12.6 µM (inactive). Further, the GI50 in the assay with TK-10 is 14.6 µM (inactive).

In the case of `CO[P@@]1(=O)O[C@@H](c2ccccc2)[C@H](O)[C@]1(O)c1ccccc1`, the GI50 in the assay with MDA-MB-231, in the assay on SF-268, with CCRF-CEM, in the assay on K562, in the assay with OVCAR-4 and in the assay with U-251 was > 100 µM (inactive) throughout. The GI50 in the assay with IGROV-1, in the assay on BT-549, in the assay on PC-3, in the assay with CAKI-1, in the assay with SNB-19 and in the assay on MOLT-4 was > 100 µM (inactive) throughout. Also, the GI50 in the assay with HL-60 is > 100 µM (inactive); in the assay with COLO 205, > 100 µM (inactive); in the assay with MCF7 it was > 100 µM (inactive); in the assay with RXF 393, > 100 µM (inactive); in the assay with HCT-15, above 100 µM; with HOP-92 it was > 100 µM (inactive). The GI50 in the assay on TK-10 is > 100 µM (inactive).

As for `CC1(C)SC2C(C(=O)O)N=C(Cc3ccccc3)N2C1C(=O)O` (centres undefined), the GI50 in the assay on MDA-MB-231 is 43.3 µM (inactive); with SF-268, 30.1 µM (inactive); with K562, 62.7 µM (inactive); with OVCAR-4, 92.3 µM (inactive); in the assay on U-251 it was 32.7 µM (inactive); in the assay on IGROV-1, > 100 µM (inactive). The GI50 in the assay with BT-549 was 31 µM (inactive); in the assay with PC-3, 42.7 µM (inactive); with CAKI-1, 43.7 µM (inactive); in the assay on SNB-19, 32.5 µM (inactive); with MOLT-4, > 100 µM (inactive); in the assay on HCC 2998, 25.3 µM (inactive). Moreover, the GI50 with COLO 205 is > 100 µM (inactive); with MCF7 it was 34.2 µM (inactive); in the assay on RXF 393, 34.6 µM (inactive); in the assay on HCT-15, 81.5 µM; in the assay with HOP-92, 42.8 µM (inactive); in the assay on TK-10, 20.4 µM (inactive).

On to `C=C[C@@]1(C)CC(=O)[C@]2(O)[C@@]3(C)[C@@H](OC(C)=O)CCC(C)(C)[C@@H]3[C@H](OC(C)=O)[C@H](OC(C)=O)[C@@]2(C)O1`, for which the GI50 in the assay on MDA-MB-231 was > 100 µM (inactive); in the assay on K562 it was > 100 µM (inactive); in the assay on OVCAR-4 it was > 100 µM (inactive); in the assay with U-251 it was > 100 µM (inactive); with IGROV-1 it was 56.6 µM (inactive); in the assay on BT-549 it was > 100 µM (inactive). Further, the GI50 was > 100 µM (inactive) in the assay on PC-3; > 100 µM (inactive) with CAKI-1; > 100 µM (inactive) with SNB-19; 51.4 µM (inactive) in the assay with MOLT-4; > 100 µM (inactive) with HCC 2998; > 100 µM (inactive) with MCF7. Also, the GI50 is above 100 µM in the assay with HCT-15 and > 100 µM (inactive) in the assay with HOP-92.

With `CC1CCCc2c(-c3ccc(Cl)cc3)nc(N)c(C#N)c21` (centres undefined), the GI50 in the assay on MDA-MB-231 was > 100 µM (inactive); in the assay on SF-268, 69.3 µM (inactive); in the assay with CCRF-CEM, 21.1 µM (inactive); with K562 it was 24 µM (inactive); with U-251 it was 39.9 µM (inactive); in the assay on IGROV-1, 19.6 µM (inactive). In addition, the GI50 was 20.2 µM (inactive) with BT-549; 21.6 µM (inactive) in the assay with PC-3; 58.2 µM (inactive) in the assay with CAKI-1; 64.7 µM (inactive) with SNB-19; 20 µM (inactive) in the assay on MOLT-4; 22.7 µM (inactive) in the assay with HL-60. Also, the GI50 in the assay with COLO 205 is 23.2 µM (inactive); in the assay with MCF7, 29 µM (inactive); in the assay with RXF 393, 27.2 µM (inactive); in the assay with HCT-15, 31 µM; in the assay with TK-10, 43.7 µM (inactive).

On to `CC[C@H](C)C1=C(O)[N@+]2([O-])Oc3ccc(-c4c(O)c(O)c(-c5ccc(O)cc5)c(OC(C)=O)c4OC(C)=O)cc3O[C@]2([C@@H](C)CC)C(=O)N1O`, for which the GI50 was > 50 µM (inactive) with MDA-MB-231; 27.5 µM (inactive) in the assay with SF-268; 21.4 µM (inactive) with K562; 11.6 µM (inactive) in the assay with OVCAR-4; 26.7 µM (inactive) in the assay on U-251; 6.4 µM (inactive) in the assay on IGROV-1. Moreover, the GI50 in the assay with BT-549 was 25.6 µM (inactive); in the assay with PC-3 it was 22.2 µM (inactive); in the assay with CAKI-1, 28.8 µM (inactive); in the assay on SNB-19, 47.3 µM (inactive); in the assay on MOLT-4, 16.3 µM (inactive); in the assay on HL-60, 17.7 µM (inactive). Further, the GI50 in the assay with COLO 205 was > 50 µM (inactive); with MCF7, 18.7 µM (inactive); in the assay with RXF 393, > 50 µM (inactive); in the assay with HCT-15 it was 17 µM; in the assay with HOP-92, 6.52 µM (inactive); in the assay with TK-10, 24.3 µM (inactive).

With `Cc1ccc(/N=N/c2c(O)c3ccccc3[nH]c2=O)c(S(=O)(=O)N(C)C)c1`, the GI50 in the assay on MDA-MB-231, in the assay on SF-268, with CCRF-CEM, with K562, in the assay with OVCAR-4 and with U-251 was > 100 µM (inactive) throughout. Further, the GI50 with IGROV-1, in the assay with BT-549, in the assay on PC-3, with CAKI-1, with SNB-19 and in the assay on HL-60 was > 100 µM (inactive) each time. Moreover, the GI50 was > 100 µM (inactive) in the assay on COLO 205; > 100 µM (inactive) in the assay with MCF7; > 100 µM (inactive) with RXF 393; above 100 µM in the assay on HCT-15; > 100 µM (inactive) with HOP-92; > 100 µM (inactive) with TK-10.

Take `CC(=O)OC1COC(Nc2nc(NCc3ccccc3)n(C)c(=O)c2N=O)C(OC(C)=O)C1OC(C)=O` (centres undefined): the GI50 in the assay on MDA-MB-231, with SF-268, in the assay with CCRF-CEM, in the assay on K562, in the assay on OVCAR-4 and in the assay on U-251 was > 10 µM (inactive) each time. Moreover, the GI50 in the assay with IGROV-1, in the assay with BT-549, in the assay with PC-3, in the assay on CAKI-1, in the assay on SNB-19 and with MOLT-4 was > 10 µM (inactive) each time. Moreover, the GI50 with HL-60 is > 10 µM (inactive); in the assay on HCC 2998 it was > 10 µM (inactive); in the assay with COLO 205, > 10 µM (inactive); in the assay on MCF7 it was > 10 µM (inactive); with RXF 393, > 10 µM (inactive); in the assay with HCT-15 it was above 10 µM. Besides, the GI50 in the assay with TK-10 was > 10 µM (inactive).
